According to ChEMBL document CHEMBL1201862, “PubChem BioAssay data set” (2004):
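Where inhibition never reached the appropriate level, the endpoint shown equals the highest concentration tested. Otherwise, values were interpolated linearly from a five-concentration, 48-hour dose response in 96-well plates. At the GI50, growth is halved.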 Active and inactive are the calls of the source. Cut-off read from the data, not from the text of the source: active = GI50 up to about 1.1 µM and inactive = higher.

What was measured:
Test in all cases: NCI tumour cell line growth inhibition, 48 h
[1] = system: 786-0
[2] = system: A549
[3] = system: COLO 205
[4] = system: DU-145
[5] = system: EKVX
[6] = system: HOP-62
[7] = system: HOP-92
[8] = system: Hs-578T
[9] = system: IGROV-1
[10] = system: KM12
[11] = system: M14
[12] = system: MDA-MB-231
[13] = system: Malme-3M
[14] = system: NCI-H522
[15] = system: NCI/ADR-RES
[16] = system: SF-268
[17] = system: SF-295
[18] = system: SR
[19] = system: UACC-62
[20] = system: HL-60

SMILES	GI50 [1]	GI50 [2]	GI50 [3]	GI50 [4]	GI50 [5]	GI50 [6]	GI50 [7]	GI50 [8]	GI50 [9]	GI50 [10]	GI50 [11]	GI50 [12]	GI50 [13]	GI50 [14]	GI50 [15]	GI50 [16]	GI50 [17]	GI50 [18]	GI50 [19]	GI50 [20]
Clc1sc(Cl)c2c1[C@H](Cl)C[C@@H]2Cl	19.6 µM (inactive)	21.2 µM (inactive)	29.2 µM (inactive)	27.5 µM (inactive)	38.3 µM (inactive)	38.5 µM (inactive)	6.58 µM (inactive)	15.9 µM (inactive)	17.4 µM (inactive)	25.6 µM (inactive)	15.1 µM (inactive)	32.1 µM (inactive)	15 µM (inactive)	1.07 µM (active)	15.9 µM (inactive)	17.8 µM (inactive)	35.3 µM (inactive)	58.9 µM (inactive)	22.2 µM (inactive)	
CC1(C)CC(=O)C2=C(C1)c1c(ccc3ccccc13)NC2c1cn(Cc2ccc(Cl)cc2)c2ccccc12 (stereo not given)	> 100 µM (inactive)	> 100 µM (inactive)	> 100 µM (inactive)	> 100 µM (inactive)	30.7 µM (inactive)	40.9 µM (inactive)	27.7 µM (inactive)	74.1 µM (inactive)	59.2 µM (inactive)	> 100 µM (inactive)	> 100 µM (inactive)	> 100 µM (inactive)		66.8 µM (inactive)	52.6 µM (inactive)	> 100 µM (inactive)	31.2 µM (inactive)	11.2 µM (inactive)	> 100 µM (inactive)	37.8 µM (inactive)
COc1ccc2c3c([nH]c2c1)CCN(CCCC(=O)c1ccc(F)cc1)C3	14.1 µM (inactive)	17.1 µM (inactive)	12.8 µM (inactive)	18.7 µM (inactive)	12.8 µM (inactive)	12.2 µM (inactive)		6.56 µM (inactive)	18.4 µM (inactive)	19.7 µM (inactive)	15.5 µM (inactive)	15.8 µM (inactive)	13.4 µM (inactive)	23.3 µM (inactive)	18.6 µM (inactive)	16.8 µM (inactive)	15.7 µM (inactive)	18 µM (inactive)	13.8 µM (inactive)	15 µM (inactive)
C[N+]1(Cc2ccc(Cl)c(Cl)c2)CCCC1C1CCCN(Cc2ccc(Cl)c(Cl)c2)C1 (stereo not given)	> 100 µM (inactive)	> 100 µM (inactive)	> 100 µM (inactive)	> 100 µM (inactive)	46 µM (inactive)	> 100 µM (inactive)	> 100 µM (inactive)	> 100 µM (inactive)	70 µM (inactive)	> 100 µM (inactive)	> 100 µM (inactive)	> 100 µM (inactive)	82.4 µM (inactive)	> 100 µM (inactive)	> 100 µM (inactive)	> 100 µM (inactive)	> 100 µM (inactive)	> 100 µM (inactive)	> 100 µM (inactive)	
Nc1nc(N)c(/N=N/c2ccc(C(=O)O)c(O)c2)c(N)n1	> 100 µM (inactive)	> 100 µM (inactive)	> 100 µM (inactive)	> 100 µM (inactive)	91.6 µM (inactive)	> 100 µM (inactive)	92.5 µM (inactive)	> 100 µM (inactive)	> 100 µM (inactive)	> 100 µM (inactive)	> 100 µM (inactive)	> 100 µM (inactive)	> 100 µM (inactive)	26.8 µM (inactive)	> 100 µM (inactive)	> 100 µM (inactive)	> 100 µM (inactive)	> 100 µM (inactive)	> 100 µM (inactive)	
CSc1nc(N)c(NC2OC(CO)C(O)C2O)c(=O)[nH]1 (stereo not given)	> 100 µM (inactive)	> 100 µM (inactive)	> 100 µM (inactive)	> 100 µM (inactive)	> 100 µM (inactive)	> 100 µM (inactive)		> 100 µM (inactive)	> 100 µM (inactive)	> 100 µM (inactive)	> 100 µM (inactive)	> 100 µM (inactive)	> 100 µM (inactive)	> 100 µM (inactive)	> 100 µM (inactive)	> 100 µM (inactive)	> 100 µM (inactive)	> 100 µM (inactive)	> 100 µM (inactive)	> 100 µM (inactive)
Cn1c(-c2ccc[se]2)ccc1-c1ccc(C=O)[se]1	20.9 µM (inactive)	23.3 µM (inactive)	16.3 µM (inactive)	29.4 µM (inactive)	48.5 µM (inactive)	0.385 µM (active)	10.5 µM (inactive)	25.2 µM (inactive)	0.122 µM (active)	> 100 µM (inactive)	> 86.3 µM (inactive)	35.9 µM (inactive)		16.4 µM (inactive)	2.16 µM (inactive)	16.4 µM (inactive)	12.4 µM (inactive)	7.45 µM (inactive)	0.205 µM (active)	9.31 µM (inactive)
C/C(=C\CNc1ncnc2[nH]c(Cl)nc12)CO	> 100 µM (inactive)	> 100 µM (inactive)	> 100 µM (inactive)	> 100 µM (inactive)	> 100 µM (inactive)	> 100 µM (inactive)	> 100 µM (inactive)	> 100 µM (inactive)	> 100 µM (inactive)	> 100 µM (inactive)	> 100 µM (inactive)	> 100 µM (inactive)	> 100 µM (inactive)	> 100 µM (inactive)	> 100 µM (inactive)	> 100 µM (inactive)	> 100 µM (inactive)	> 100 µM (inactive)		> 100 µM (inactive)
CC(=O)Nc1c(C)cc2c(nc3n2CCC3OC(C)=O)c1[N+](=O)[O-] (stereo not given)	> 100 µM (inactive)	> 100 µM (inactive)	> 100 µM (inactive)	> 100 µM (inactive)	> 100 µM (inactive)		> 100 µM (inactive)	> 100 µM (inactive)	> 100 µM (inactive)	> 100 µM (inactive)	> 100 µM (inactive)	> 100 µM (inactive)	> 100 µM (inactive)	> 100 µM (inactive)	> 100 µM (inactive)	> 100 µM (inactive)	> 100 µM (inactive)	> 100 µM (inactive)	> 100 µM (inactive)	> 100 µM (inactive)
c1csc(-c2cc(-c3ccsc3)c(-c3ccsc3)s2)c1	> 100 µM (inactive)	> 100 µM (inactive)	89.7 µM (inactive)	> 100 µM (inactive)	8.15 µM (inactive)	> 100 µM (inactive)	> 100 µM (inactive)	> 100 µM (inactive)	> 100 µM (inactive)	> 100 µM (inactive)	> 100 µM (inactive)	> 100 µM (inactive)	> 100 µM (inactive)	> 100 µM (inactive)	> 100 µM (inactive)	> 100 µM (inactive)	> 100 µM (inactive)	> 100 µM (inactive)	> 100 µM (inactive)	
